US20090271892A1, “LYSOPHOSPHATIDIC ACID ACYLTRANSFERASE GENES AND USES THEREOF” (priority 2006, published 2009)
Substitutions are numbered along the chain they refer to. Like-named read-outs stand apart in the source and are kept apart here.

What was measured:
[1] = target: Litchi sinensis LPAAT (LsLPAAT) (Litchi chinensis, UniProt A0A346D9Z1); test: Competitive LPAAT assay using C18:1-CoA and C19CA-CoA; format: biochemical
Description: (§1) The ^3H-oleoyl-lysophosphatidic acid (^3HLPA, ref. NET1100; 600 μM, 28 mCi mmol^−1) and ^14C-Oleoyl-CoA (^14CC18:1-CoA, ref. NET651A; 300 μM, 11 mCi mmol^−1) radio-labeled substrates were purchased from Perkin Elmer. Assays were carried out in a final volume of 300 μl and contained Tris/HCl (100 mM, pH7.5), Triton X-100 (0.01% w/v), BSA (1 mg/ml), ascorbic acid (10 mM), EDTA (2 mM), 100 μl LPA and 50 μl acyl-CoA. The reaction was started by the addition of 30 μl of microsomes, and conducted in a glass vial placed in a Eppendorf Thermomixer-compact apparatus (30° C., 350 rpm). The reaction was stopped after incubation (from 0 to 120 min) by addition of 720 μl of chloroform/methanol (1:1). To separate the phases, 280 μl of 1M KCl in 0.2 M H3PO4 were added and the whole mixture was vortexed for 10 s before centrifugation at 1300 g, 5 min at room temperature. The upper aqueous phase was discarded and 2×25 μl of the remaining organic phase was spotted on to silica gel 60 ÅF254 TLC plates (ref. 1.05715, Merck) and developed in chloroform/methanol/NH4OH/water (65:25:0.9:3). The phosphatidic acid spot was visualized by iodine revelation and collected for scintillation counting.
(§2) Radioactivity measurement was performed in 10 mL Ultimagold (ref. 6013329, Perkin Elmer) using a liquid scintillation analyzer (Tri-Carb 2100TR, Packard) for determination of ^3H and ^14C separately.
(§3) […] For all experimental conditions, data are derived from three experiments with 4 replicates each.
(§4) LPAAT selectivity for the two substrates is calculated as follows:
(§5) Selectivity for C18:1-CoA: S^C18:1-CoA=^14C/^3H
(§6) Selectivity for C19CA-CoA: S^C19:1CA-CoA=(^3H—^14C)/^3H
(§7) in which, ^3H and ^14C are the molar quantity of produced PA and the molar quantity of ^14C18:1 incorporated into this PA. These molar quantities are calculated from the corresponding ^3H and ^14C radioactivity levels measured in the phosphatidic acid spots scraped from TLC plates. Selectivity is expressed as the fraction of the specific fatty acid incorporated out of the total incorporated at the sn-2 position.

[2] = target: Brassica napus LPAAT (BnLPAAT) (Brassica napus, UniProt Q9XFW4); test: as above; format: biochemical
Description: as §1, §2, §3, §4, §5, §6, §7

[3] = LPAAT assay with C18:1-CoA as substrate (microsomes of transformed E. coli); format: biochemical; settings: expressed in transformed E. coli mutant strains; FIG. 1
Description: The ^3H-oleoyl-lysophosphatidic acid (^3HLPA, ref. NET1100; 600 μM, 28 mCi mmol^−1) and ^14C-Oleoyl-CoA (^14CC18:1-CoA, ref. NET651A; 300 μM, 11 mCi mmol^−1) radio-labeled substrates were purchased from Perkin Elmer. Assays were carried out in a final volume of 300 μl and contained Tris/HCl (100 mM, pH7.5), Triton X-100 (0.01% w/v), BSA (1 mg/ml), ascorbic acid (10 mM), EDTA (2 mM), 100 μl LPA and 50 μl acyl-CoA. The reaction was started by the addition of 30 μl of microsomes, and conducted in a glass vial placed in a Eppendorf Thermomixer-compact apparatus (30° C., 350 rpm). The reaction was stopped after incubation (from 0 to 120 min) by addition of 720 μl of chloroform/methanol (1:1). […]
as §2
A first LPAAT assay was performed as described above in order to determine optimal LPAAT activity using ^14CC18:1-CoA as substrate: • Effect of incubation time was tested for 0, 1, 3, 5, 10, 30, 60 and 120 min with 50 μM ^14CC18:1-CoA at 30° C. • In order to determine LPAAT kinetic parameters, the effect of C18:1-CoA concentration was tested as described above. […] For all experimental conditions, the mean of 2 values is calculated. […]

[4] = Competitive LPAAT assay using C18:1-CoA and C19CA-CoA; format: biochemical; settings: for use of C19CA-CoA as substrate: competitive assays using C19CA-CoA and C18:1-CoA
Description: as §1, §2, §3, §4, §5, §6, §7

[5] = substrate: CCCCCCCC/C=C\CCCCCCCC(=O)SCCNC(=O)CCNC(=O)[C@H](O)C(C)(C)COP(=O)(O)OP(=O)(O)OC[C@H]1O[C@@H](n2cnc3c(N)ncnc32)[C@H](O)[C@@H]1OP(=O)(O)O; test: LPAAT assay, kinetic parameters with C18:1-CoA, E. coli JC201 microsomes; format: biochemical, Brassica napus; settings: other: C18:1-CoA 0-50 μM, 10 min, 30° C., pH7.5, N = 3, pH 7.5
Description: FIG. 1: Kinetics of phosphatidic acid synthesis using ^14C-C18:1-CoA on ^3H-LPA as substrates and Brassica napus (SEQ ID No 5) and Litchi microsomal (SEQ ID NO 1) LPAATs as enzymes. Duplicate measurements for one experiment are shown.
The following experiments were performed with the Escherichia coli JC201 mutant strain, which is temperature conditional in endogenous LPAAT activity and able to grow at 30° C. but not at 44° C. (genotype plsC, described in Coleman, 1990 J. Biol. Chem., 265 (28), 17215-21.). These bacteria were kept at −80° C. as 1 ml glycerol stocks. For E. coli JC201 transformation, one glycerol stock was diluted in 15 mL of Luria-Bertani (ref. L3022, Sigma) liquid medium and cultivated overnight at 30° C. Then, 1 mL was used to inoculate flasks containing 15 mL of fresh liquid LB medium. Optical density was measured at 600 nm and each flask was then cultivated for 6 hours at 30 and 44° C. respectively in order to check by optical density measurement that bacterial growth occurs at 30° C. but not at 44° C. One of the cultures obtained at 30° C. was then centrifuged at 4500 g/4° C. for 10 min. Supernatant was discarded and the pellet was kept on ice for 2 hours. The pellet was washed three time with 15 mL sterile distilled water and then twice with 15 mL distilled sterile water containing 10% (weight/volume) glycerol (centrifugation condition: 4500 g/4° C./10 min). […]

[6] = substrate: CCCCCCCC/C=C\CCCCCCCC(=O)SCCNC(=O)CCNC(=O)[C@H](O)C(C)(C)COP(=O)(O)OP(=O)(O)OC[C@H]1O[C@@H](n2cnc3c(N)ncnc32)[C@H](O)[C@@H]1OP(=O)(O)O; test: as above; format: biochemical, Litchi sinensis; settings: other: C18:1-CoA 0-50 μM, 10 min, 30° C., pH7.5, N = 5, pH 7.5
Description: The inventors have identified one putative Lysophosphatidic Acid-Acyl Transferase from Lychee (SEQ ID No 2). They also have obtained a mutated protein derived from this protein, which is depicted as SEQ ID No 1.
Plasmids pEW108 and 117 comprising genes coding for SEQ ID No 1 and SEQ ID No 2 respectively under the control of the araBAD promoter (Guzman, L-M. et al. (1995) J Bacteriology 177: 4121-4130) were prepared and used to transform and complement an E. coli strain. The araBAD promoter is induced by arabinose, repressed by glucose and is used in the art to express polynucleotides in a controlled manner.
The following experiments were performed with the Escherichia coli JC201 mutant strain, which is temperature conditional in endogenous LPAAT activity and able to grow at 30° C. but not at 44° C. (genotype plsC, described in Coleman, 1990 J. Biol. Chem., 265 (28), 17215-21.). These bacteria were kept at −80° C. as 1 ml glycerol stocks. For E. coli JC201 transformation, one glycerol stock was diluted in 15 mL of Luria-Bertani (ref. L3022, Sigma) liquid medium and cultivated overnight at 30° C. […] Optical density was measured at 600 nm and each flask was then cultivated for 6 hours at 30 and 44° C. respectively in order to check by optical density measurement that bacterial growth occurs at 30° C. but not at 44° C. […]

[7] = 50 μM C18:1-CoA, 25 μM C19CA, fraction of total incorporated at sn-2, read-out: Selectivity for C19CA-CoA in competition with C18:1-CoA
[8] = 50 μM C18:1-CoA, 50 μM C19CA, fraction of total incorporated at sn-2, read-out: Selectivity for C19CA-CoA in competition with C18:1-CoA
[9] = average over the concentrations, read-out: Average selectivity for C19CA-CoA in competition with C18:1-CoA

Chain of Litchi sinensis LPAAT (LsLPAAT) (A0A346D9Z1 entry or part of it): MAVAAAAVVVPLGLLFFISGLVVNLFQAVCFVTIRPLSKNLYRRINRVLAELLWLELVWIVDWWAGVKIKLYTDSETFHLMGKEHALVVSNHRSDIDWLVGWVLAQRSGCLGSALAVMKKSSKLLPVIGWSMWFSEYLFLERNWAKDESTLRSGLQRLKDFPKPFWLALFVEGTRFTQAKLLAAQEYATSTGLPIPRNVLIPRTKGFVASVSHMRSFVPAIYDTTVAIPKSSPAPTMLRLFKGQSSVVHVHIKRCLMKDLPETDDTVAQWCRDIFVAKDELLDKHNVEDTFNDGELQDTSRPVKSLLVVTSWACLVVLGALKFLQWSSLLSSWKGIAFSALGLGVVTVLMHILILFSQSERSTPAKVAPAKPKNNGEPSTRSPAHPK

## CCCCCCCCC1CC1CCCCCCCC(=O)SCCNC(=O)CCNC(=O)[C@H](O)C(C)(C)COP(=O)(O)OP(=O)(O)OC[C@H]1O[C@@H](n2cnc3c(N)ncnc32)[C@H](O)[C@@H]1OP(=O)(O)O (stereo partly drawn) [C19CA-CoA]
[1]; 25 μM C18:1-CoA, 10 μM C19CA, fraction of total incorporated at sn-2, read-out: Selectivity for C19CA-CoA in competition with C18:1-CoA
  selectivity ratio: 0.15
[1]; 25 μM C18:1-CoA, 25 μM C19CA, fraction of total incorporated at sn-2, read-out: Selectivity for C19CA-CoA in competition with C18:1-CoA
  selectivity ratio: 0.34
[1]; [7]
  selectivity ratio: 0.28
[1]; [8]
  selectivity ratio: 0.35
[1]; [9]
  selectivity ratio: 0.377 ± 0.101
[1]; in competition with C18:1-CoA, even at low total concentrations of acyl-CoA
  Fatty acids incorporated at the sn-2 position being 19:0CA: up to 35%
[2]; [7]
  selectivity ratio: 0.01
[2]; [8]
  selectivity ratio: 0.19
[2]; [9]
  selectivity ratio: 0.054 ± 0.057

B1: Brassica napus LPAAT (BnLPAAT, RAT1), SEQ ID No 5 (Brassica napus) (protein)
chain: MAMAAAVIVPLGILFFISGLVVNLLQAVCYVLVRPLSKNTYRKINRVVAETLWLELVWIVDWWAGVKIQVFADDETFNRMGKEHALVVCNHRSDIDWLVGWILAQRSGCLGSALAVMKKSSKFLPVIGWSMWFSEYLFLERNWAKDESTLKSGLQRLNDFPRPFWLALFVEGTRFTEAKLKAAQEYAASSELPVPRNVLIPRTKGFVSAVSNMRSFVPAIYDMTVAIPKTSPPPTMLRLFKGQPSVVHVHIKCHSMKDLPESEDEIAQWCRDQFVTKDALLDKHIAADTFAGQKEQNIGRPIKSLAVVLSWACLLTLGAMKFLHWSNLFSSWKGIALSALGLGIITLCMQILIRSSQSERSTPAKVAPAKPKDNHQSGPSSQTEVEEKQK
[3]
  esterification of 14C-C18:1-CoA on 3H-LPA (presence of PA in lipid fraction): fully functional
[4]
  use of C19CA-CoA as substrate: can use C19CA-CoA as substrate
[4]; very little incorporation of 19:0CA up to 50 μM
  selectivity for C19CA-CoA (in words): very low selectivity
[5]
  Km: 10.6 ± 6.7 µM
  Vmax: 0.0056 µmol/min/mg

B2: Litchi sinensis LPAAT (LsLPAAT, pEW117), SEQ ID No 2 (Litchi chinensis) (protein)
chain: MAVAAAAVVVPLGLLFFISGLVVNLFQAVCFVTIRPLSKNLYRRINRVLAELLWLELVWIVDWWAGVKIKLYTDSETFHLMGKEHALVVSNHRSDIDWLVGWVLAQRSGCLGSALAVMKKSSKLLPVIGWSMWFSEYLFLERNWAKDESTLRSGLQRLKDFPKPFWLALFVEGTRFTQAKLLAAQEYATSTGLPIPRNVLIPRTKGFVASVSHMRSFVPAIYDTTVAIPKSSPAPTMLRLFKGQSSVVHVHIKRCLMKDLPETDDTVAQWCRDIFVAKDELLDKHNVEDTFNDGELQDTSRPVKSLLVVTSWACLVVLGALKFLQWSSLLSSWKGIAFSALGLGVVTVLMHILILFSQSERSTPAKVAPAKPKNNGEPSTRSQDKQK
[6]
  Km: 3.6 ± 1.7 µM
  Vmax: 0.000115 µmol/min/mg

B3: LsLPAAT: L. sinensis LPAAT; clone not stated in Table 2, probably pEW108 / SEQ ID No 1 (protein)
chain: B2 chain with Q383P, D384A, K385H, Q386P
modifications: synthetic LPAAT derived from litchi
[3]
  esterification of 14C-C18:1-CoA on 3H-LPA (presence of PA in lipid fraction): fully functional
[4]
  use of C19CA-CoA as substrate: can use C19CA-CoA as substrate
